Tests used:
Type in all cases: binding
[1] = system: 25 kDa covalently modified band in HAP1 cells; test: Photoaffinity labeling with HAP1 wild-type and Hsp27 knockout cells; details: 15 μM PRAPP
Text: First, we conducted photoaffinity labeling studies with wild-type (WT) HAP1 cells to verify the existence of the 25 kDa covalent modification that we observed in PC12 cells.
Figure 7 Photoaffinity Labeling Experiments with HAP1 cells. […] The nonspecific background modifications remain unchanged with increasing concentration of P3, further confirming the 25 kDa covalently modified band as a true target; (B) comparison of the photoaffinity labeling experiments with HAP1 wild-type (WT) cells and Hsp27 knockout (KO) cells at 15 μM PRAPP concentration.

[2] = target: T1, 25 kDa protein band in PC12 SOD1^G93A cells (Rattus norvegicus, UniProt P62260); test: Live-cell photoaffinity labeling: concentration-dependent covalent modification of the 25 kDa band by PRAPP (in-gel fluorescence, Hill fit); details: all three treatment scenarios
T1 construct: we identified a 25 kDa covalently modified protein band in the PC12 SOD1^G93A cell line; endogenous in cells; host or cells: PC12-SOD1^G93A cells (live-cell UV photolabeling, then lysis)
T1 sequence (P62260 1-255): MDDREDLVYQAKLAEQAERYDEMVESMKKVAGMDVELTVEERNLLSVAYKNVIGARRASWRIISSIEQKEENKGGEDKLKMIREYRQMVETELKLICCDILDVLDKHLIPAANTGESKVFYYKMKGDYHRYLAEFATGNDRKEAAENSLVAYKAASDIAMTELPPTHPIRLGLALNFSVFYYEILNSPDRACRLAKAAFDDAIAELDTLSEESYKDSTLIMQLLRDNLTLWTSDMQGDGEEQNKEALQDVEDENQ
Protocol: PC12-SOD1^G93A cells were cultured and grown to 90% confluency (in 6-well plates) and washed once with PBS followed by the addition of serum medium containing the appropriate analyte at the indicated concentrations. Three incubation scenarios were studied (at 37 °C): Scenario 1) 12 h preincubation with PRAPP in the absence of MG-132; Scenario 2) 12 h preincubation with PRAPP in the absence of MG-132 followed by an additional 24 h incubation (control); and Scenario 3) 12 h preincubation with PRAPP followed by the addition of MG-132 (100 nM) and an additional 24 h incubation. After incubation, the medium was discarded and cells were washed with PBS (1 × 300 μL). […] Each lysate was centrifuged at 4 °C for 5 min at 13,000 rpm, and the resulting supernatant was concentrated with a centrifugal filter (Amicon Ultra Centrifugal Filters 3K cutoff, Millipore), normalized to 1.0 mg/mL by the Bradford assay, and analyzed immediately or stored at −80 °C for subsequent analysis.
In a darkened (wrapped with aluminum foil) Eppendorf tube, each lysate (30 μL [30 μg]) was incubated with 10 μL of the freshly prepared “click” premix containing CuSO4 (5 mM), sodium ascorbate (5 mM), TBTA (200 μM), and N3–Alexa-647 (50 μM) were added to PBS (50 mM, pH 7.4). […] In-gel fluorescence was monitored (excitation λ = 635 nm; emission λ = 670 nm) using a Typhoon 9400 (GE Healthcare) fluorimager. […]

[3] = target: T1, 25 kDa protein band in PC12 SOD1^G93A cells; test: Competition of PRAPP photoaffinity labeling of the 25 kDa band in PC12-SOD1^G93A cells; details: 30 μM PRAPP
Protocol: PC12-SOD1^G93A cells were cultured and grown to 90% confluency (in 6-well plates) and washed once with PBS followed by the addition of serum medium containing the appropriate analyte at the indicated concentrations. Three incubation scenarios were studied (at 37 °C): Scenario 1) 12 h preincubation with PRAPP in the absence of MG-132; Scenario 2) 12 h preincubation with PRAPP in the absence of MG-132 followed by an additional 24 h incubation (control); and Scenario 3) 12 h preincubation with PRAPP followed by the addition of MG-132 (100 nM) and an additional 24 h incubation. After incubation, the medium was discarded and cells were washed with PBS (1 × 300 μL). Fresh serum-free medium was added, and the cells were irradiated with UV light (312 nm, 120 V, 60 Hz, 0.2 A [Spectroline model EB-160C], distance ∼4 cm) for 15 min. The medium was removed, cells were washed with PBS (2 × 500 μL), and 200 μL of lysis buffer containing Tris HCl (25 mM, pH 7.6), NaCl (150 mM), 1% NP40, 1% sodium deoxycholate, 0.1% SDS, and protease inhibitor cocktail (Sigma-Aldrich, 1:100 v/v) was added to each well. Complete lysis was observed by a microscope after 10 min at 4 °C with agitation. Each lysate was centrifuged at 4 °C for 5 min at 13,000 rpm, and the resulting supernatant was concentrated with a centrifugal filter (Amicon Ultra Centrifugal Filters 3K cutoff, Millipore), normalized to 1.0 mg/mL by the Bradford assay, and analyzed immediately or stored at −80 °C for subsequent analysis.
In a darkened (wrapped with aluminum foil) Eppendorf tube, each lysate (30 μL [30 μg]) was incubated with 10 μL of the freshly prepared “click” premix containing CuSO4 (5 mM), sodium ascorbate (5 mM), TBTA (200 μM), and N3–Alexa-647 (50 μM) were added to PBS (50 mM, pH 7.4). The corresponding final concentrations within the lysate click incubation were: CuSO4 (1.25 mM), sodium ascorbate (1.25 mM), TBTA (50 μM), and N3–Alexa-647 (12.5 μM). The mixture was vortexed briefly and incubated for 1.5 h at 37 °C in the dark. NuPAGE LDS sample loading buffer (4 × 13 μL) was added, and the mixture was denatured in boiling water for 10 min. SDS-PAGE was performed on Novex Bis-Tris gel 4–12% with MES SDS running buffer (90 V constant for 30 min followed by 100 V for 90 min; load volume = 25 μL). Protein standards that gave appropriate visible and fluorescent bands for our application included the BioRad Precision Plus All Blue Protein Standard and Novex Pre-Stained Protein Standard. In-gel fluorescence was monitored (excitation λ = 635 nm; emission λ = 670 nm) using a Typhoon 9400 (GE Healthcare) fluorimager. Densitometric analysis and image refinement were carried out as needed using ImageJ software (NIH, open source). The contrast and brightness of images were modified using ImageJ and/or Microsoft Word to enhance visualization for publication purposes.

SMILES | intensity of the 25 kDa covalently modified band in Hsp27 KO versus WT cells [1] | concentration of saturation binding kinetics [2] | competitor to PRAPP ratio at complete disappearance of the band [3] | EC50 ([3]; scenario 1, n = 2, read-out: EC50 for the competition with PRAPP (25 kDa band intensity)) [µM]
C#CCN(Cc1cc(=O)[nH][nH]1)Cc1c(F)c(F)c(N=[N+]=[N-])c(F)c1F [PRAPP, 5-(((4-Azido-2,3,5,6-tetrafluorobenzyl)(prop-2-yn-1-yl)amino)methyl)-1,2-dihydro-3H-pyrazol-3-one] | remains unchanged | around 30 μM | – | –
O=c1cc(COc2cc(Cl)cc(Cl)c2)[nH][nH]1 [P2] | – | – | 6 | 11.1

Reference: article PMC10823514, “Target Identification of a Class of Pyrazolone Protein Aggregation Inhibitor Therapeutics for Amyotrophic Lateral Sclerosis” (ACS Central Science, 2023)
